Paper PMC9298037 (Chemmedchem, 2021)
Where two headings read alike, the source gives them in different places.

Columns and labels:
MELK [1] = target: T1, MELK (Homo sapiens, UniProt Q14680); test: biochemical; settings: for inhibition at 10 µM: read-out: Inh. %, single-point screen at 10uM concentration, Table S1
MELK [2] = target: T1, MELK

T1 sequence (Q14680 whole entry): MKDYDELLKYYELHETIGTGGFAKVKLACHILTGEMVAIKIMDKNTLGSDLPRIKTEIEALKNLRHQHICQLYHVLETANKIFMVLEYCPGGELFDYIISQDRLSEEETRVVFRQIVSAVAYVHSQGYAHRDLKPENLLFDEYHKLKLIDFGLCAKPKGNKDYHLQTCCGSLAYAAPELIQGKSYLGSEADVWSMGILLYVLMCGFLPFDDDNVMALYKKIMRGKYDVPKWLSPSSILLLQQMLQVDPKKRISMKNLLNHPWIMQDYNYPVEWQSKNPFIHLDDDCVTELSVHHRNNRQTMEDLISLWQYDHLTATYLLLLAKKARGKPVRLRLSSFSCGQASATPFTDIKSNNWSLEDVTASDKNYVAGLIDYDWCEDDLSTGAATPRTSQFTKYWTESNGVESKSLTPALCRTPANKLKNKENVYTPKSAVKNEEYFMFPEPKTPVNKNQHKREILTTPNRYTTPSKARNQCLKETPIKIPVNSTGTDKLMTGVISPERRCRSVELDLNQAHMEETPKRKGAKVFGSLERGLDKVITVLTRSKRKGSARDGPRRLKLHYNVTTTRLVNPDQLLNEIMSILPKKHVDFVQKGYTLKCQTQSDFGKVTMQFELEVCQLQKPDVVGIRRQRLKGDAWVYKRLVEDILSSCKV

IC50 (MELK [1]) [µM] | inhibition at 10 µM (MELK [1]) [%] | SMILES | other results
3.67 | > 40 | COc1ccc(-c2nc3c(C)c4ccccc4cn3n2)cc1 [Compound 4, 2‐(4‐methoxyphenyl)‐10‐methyl‐[1,2,4]triazolo[1,5‐b]isoquinoline] | 
4.93 | > 40 | COc1cccc(-c2nc3c(C)c4ccccc4cn3n2)c1 [Compound 5, 2‐(3‐methoxyphenyl)‐10‐methyl‐[1,2,4]triazolo[1,5‐b]isoquinoline] | 
 | > 40 | Cc1c2ccccc2cn2nc(-c3ccc(C(F)(F)F)cc3)nc12 [Compound 8, 10‐methyl‐2‐(4‐(trifluoromethyl)phenyl)‐[1,2,4]triazolo[1,5‐b]isoquinoline] | 
6.3 |  | Cc1c2ccccc2cn2nc(-c3ccccn3)nc12 [Compound 11, 10‐methyl‐2‐(pyridin‐2‐yl)‐[1,2,4]triazolo[1,5‐b]isoquinoline] | 
24.1 |  | Cc1c2ccccc2cn2nc(-c3ccc(Cl)cc3Cl)nc12 [Compound 13, 2‐(2,4‐dichlorophenyl)‐10‐methyl‐[1,2,4]triazolo[1,5‐b]isoquinoline] | 
> 3.7 |  | CCc1c2ccccc2cn2nc(-c3ccc(Cl)cc3)nc12 [Compound 17, 2‐(4‐chlorophenyl)‐10‐ethyl‐[1,2,4]triazolo[1,5‐b]isoquinoline] | 
0.794 |  | CCc1c2ccccc2cn2nc(-c3ccc(OC)cc3)nc12 [Compound 18, 10‐ethyl‐2‐(4‐methoxyphenyl)‐[1,2,4]triazolo[1,5‐b]isoquinoline] | inhibitory activity (in words) (MELK [2]; MELK): sub‐micromolar; activity boost (MELK [2]; over 3-methoxyphenyl counterpart 19): 2.5 fold; activity boost (MELK [2]; over 10-methyl counterpart 4): 4.5 fold
2.04 | > 40 | CCc1c2ccccc2cn2nc(-c3cccc(OC)c3)nc12 [Compound 19, 10‐ethyl‐2‐(3‐methoxyphenyl)‐[1,2,4]triazolo[1,5‐b]isoquinoline] | activity boost (MELK [2]; in comparison to compound 5 (10-ethyl vs 10-methyl)): 2.5 fold
 | > 40 | c1ccc(-c2nc3c4ccccc4ccn3n2)cc1 [ID 1855, 2‐phenyl‐[1,2,4]triazolo[3,2‐a]isoquinoline] | 
